Where “and” joins values, the source holds several entries; their conditions need not be identical. Identical values can stand only once.
Experiments:
Format in all cases: in vivo
[1] = system: Soybean; assay: Soybean Trial 1, pot trial, foliar spray at V2-V3; settings: soybean; for Final Seed Yield at Harvest (g per pot): one plant per pot; for Rooting (0-9) + 28 Days: score 0-9, 28 days after spraying; for Final Seed Yield + % / No of Large Pod Bearing Branches/Plant + % / Plant Biomass Score + % / Rooting + %: increase over the line given as 0 (untreated or growth regulator alone)
[2] = system: Winter barley varieties; assay: Winter barley varieties UK field trials, mean root weight per plant; settings: for Mean Root Weight Per Plant (g), individual replicate: GS33, individual replicates, listed as B.; for Mean Root Weight Per Plant (g), Mean: GS33, mean of replicates; for Increase in Mean Root Weight Per Plant: GS33, vs A. Control
Source text: G. WINTER BARLEY VARIETIES—UK field trials. Formulations applied at mid-tillering and measured at third node stage (GS33).
(§1) Treatments compared: • A. Control vs • B. Chlormequat chloride (620 g/litre) applied at 1.0 litre in 250 litres water per hectare. • C. Anthranilic Acid (1 g/ha)+Acetaminophen (3 g/ha) in 250 litres water per hectare. • B.+C. Combination of B. and C. above, in 250 litres water per hectare.
Mean Root Weight Per Plant (g)—three winter barley varieties: individual replicates and mean values.

[3] = system: Navy bean cv Primel; assay: Navy bean Trial 2, pot trial, foliar spray at V2-V3; settings: navy bean; for Final Seed Yield at Harvest (g per pot): one plant per pot; for Rooting (0-9) + 28 Days: score 0-9, 28 days after spraying; for Final Seed Yield + % / No of Large Pod Bearing Branches/Plant + % / Plant Biomass Score + % / Rooting + %: increase over the line given as 0 (untreated or growth regulator alone)
[4] = system: Winter wheat cv Limerick; assay: Winter wheat Trial 3, pot trial, sprayed at GS23; settings: for Total No of Shoots/Plant at GS33 / Total No of “Large” Shoots/Plant at GS33 / Rooting (0-9) + 28 Days / Final Seed Yield + % / Rooting + % / Total No of Shoots/Plant + % / Total No of “Large” Shoots/Plant + %: winter wheat pots; for Rooting (0-9) + 28 Days: score 0-9, 28 days after spraying; for Final Seed Yield + % / Rooting + % / Total No of Shoots/Plant + % / Total No of “Large” Shoots/Plant + %: increase over the line given as 0 (untreated or growth regulator alone); for Final Seed Yield at Harvest (g per pot): winter wheat, eight plants per pot
Method: The applied concentration of chemical can vary widely depending on the water volume applied to plants as well as other factors such as plant age and size, and plant sensitivity to the product. […] The rate of other components such as spreaders and stickers can be 50-200 ml per ha. C. […] Sprayed: 10 June, at GS23 (early-mid tillering). Plants were scored/assessed at GS33 on 12 July, with other measurements at crop maturity.

[5] = system: Winter barley; assay: Winter barley Trial 5, field trial, mean of nine varieties
Source text: (§2) The applied concentration of chemical can vary widely depending on the water volume applied to plants as well as other factors such as plant age and size, and plant sensitivity to the product. Typical rates of AN-related compounds would be 1-10 g/ha (preferably and as used in these trials, 1 g per hectare was applied), typical rates of acetaminophen or its derivatives would be 1-10 g/ha (preferably and as used in these trials, 3 g per hectare was applied). Typical rates of the agrochemically acceptable additive of the present invention would be 1-10 g/ha (preferably and as used in these trials, less than 3 g per hectare was applied). The rate of other components such as spreaders and stickers can be 50-200 ml per ha.
E. WINTER BARLEY TRIAL 5—Field trial, sown 14 Oct. 2007. Mean of Nine Varieties—mean values from varieties Pearl, Flagon, Cassata, Wintmalt, Saffron, Suzuka, Marcorel, Sequel, Volume. Location: Great Dunmow, Essex, UK, 2008. Seed rate 400 seeds/sq metre. Formulations applied mid-tillering (GS23), and assessed at GS33 and at maturity.

[6] = system: Winter wheat varieties; assay: Winter wheat varieties UK field trials, mean root weight per plant; settings: for Mean Root Weight Per Plant (g), individual replicate: GS33, individual replicates, listed as B.; for Mean Root Weight Per Plant (g), Mean: GS33, mean of replicates; for Increase in Mean Root Weight Per Plant: GS33, vs A. Control
Source text: F. WINTER WHEAT VARIETIES—UK field trials. Formulations applied at mid-tillering and measured at third node stage (GS33).
as §1
Mean Root Weight Per Plant (g)—three winter wheat varieties: individual replicates and mean values. Mean root weight per plant (g) is a mean value from 10 median plants taken from a representative 20 plant sample per plot.

[7] = system: Winter wheat; assay: Winter wheat Trial 4, field trial, mean of nine varieties
Source text: as §2
D. WINTER WHEAT TRIAL 4—Field trial, sown 18 Oct. 2007. Mean of Nine Varieties—mean values from varieties Solstice, Battalion, Duxford, Marksman, Gallant, Panorama, Qplus, Cassius, Alchemy. Location: Great Dunmow, Essex, UK, 2008. Seed rate 400 seeds/sq metre. Formulations applied mid-tillering (GS23), and assessed at GS33 and at maturity.

C[N+](C)(C)CCCl [CCC, Chlormequat chloride]
No of Large Pod Bearing Branches/Plant at Harvest [1]: 1.0 | Final Seed Yield at Harvest (g per pot) [1]: 36.0 g per pot | Plant Biomass Score (0-9) at Harvest [1]: 6.0 | Rooting (0-9) + 28 Days [1]: 4.4 | Final Seed Yield + % [1]: 0% | No of Large Pod Bearing Branches/Plant + % [1]: 0% | Plant Biomass Score + % [1]: 0% | Rooting + % [1]: 0% | Mean Root Weight Per Plant (g), individual replicate ([2]; winter barley variety Flagon): 4.0 g (2×) and 3.9 g and 4.2 g | Mean Root Weight Per Plant (g), Mean ([2]; winter barley variety Flagon): 4.03 g | Increase in Mean Root Weight Per Plant ([2]; winter barley variety Flagon): +1.65 g | Mean Root Weight Per Plant (g), individual replicate ([2]; winter barley variety Marcorel): 2.8 g (3×) and 2.9 g | Mean Root Weight Per Plant (g), Mean ([2]; winter barley variety Marcorel): 2.83 g | Increase in Mean Root Weight Per Plant ([2]; winter barley variety Marcorel): +0.85 g | Mean Root Weight Per Plant (g), individual replicate ([2]; winter barley variety Suzuka): 4.0 g and 3.0 g (3×) | Mean Root Weight Per Plant (g), Mean ([2]; winter barley variety Suzuka): 3.25 g | Increase in Mean Root Weight Per Plant ([2]; winter barley variety Suzuka): +0.90 g | No of Large Pod Bearing Branches/Plant at Harvest [3]: 1.4 | Final Seed Yield at Harvest (g per pot) [3]: 55.6 g per pot | Plant Biomass Score (0-9) at Harvest [3]: 5.4 | Rooting (0-9) + 28 Days [3]: 7.4 | Final Seed Yield + % [3]: 0% | No of Large Pod Bearing Branches/Plant + % [3]: 0% | Plant Biomass Score + % [3]: 0% | Rooting + % [3]: 0% | Total No of Shoots/Plant at GS33 [4]: 3.8 | Total No of “Large” Shoots/Plant at GS33 [4]: 2.6 | Rooting (0-9) + 28 Days [4]: 6.0 | Final Seed Yield + % [4]: 0% | Rooting + % [4]: 0% | Total No of Shoots/Plant + % [4]: 0% | Total No of “Large” Shoots/Plant + % [4]: 0% | Final Seed Yield at Harvest (g per pot) [4]: 36.4 g per pot | Final Ear Wt (10 ears) ([5]; CCC 1.0 l/ha): 22.8 g | Mean Root Diameter GS33 (cm) ([5]; GS33, CCC 1.0 l/ha): 2.05 cm | Mean Root Length GS33 (cm) ([5]; GS33, CCC 1.0 l/ha): 3.66 cm | Mean Root Weight GS33 ([5]; GS33, CCC 1.0 l/ha): 3.06 g | No of “large” Stems GS33 ([5]; GS33, CCC 1.0 l/ha): 4.23 | Total Stem Number GS33 ([5]; GS33, CCC 1.0 l/ha): 6.01 | Mean % Lodged Maturity ([5]; at maturity, CCC 1.0 l/ha): 26.3% | Mean Root Weight Per Plant (g), individual replicate ([6]; winter wheat variety Battalion): 4.1 g and 4.3 g and 4.4 g and 4.2 g | Mean Root Weight Per Plant (g), Mean ([6]; winter wheat variety Battalion): 4.25 g | Increase in Mean Root Weight Per Plant ([6]; winter wheat variety Battalion): +1.12 g | Mean Root Weight Per Plant (g), individual replicate ([6]; winter wheat variety Marksman): 4.3 g and 4.4 g (2×) and 4.5 g | Mean Root Weight Per Plant (g), Mean ([6]; winter wheat variety Marksman): 4.40 g | Increase in Mean Root Weight Per Plant ([6]; winter wheat variety Marksman): +1.10 g | Mean Root Weight Per Plant (g), individual replicate ([6]; winter wheat variety Solstice): 3.6 g (2×) and 3.7 g and 3.8 g | Mean Root Weight Per Plant (g), Mean ([6]; winter wheat variety Solstice): 3.68 g | Increase in Mean Root Weight Per Plant ([6]; winter wheat variety Solstice): +0.9 g | Final Ear Wt (10 ears) ([7]; CCC 1.0 l/ha): 18.4 g | Mean Root Diameter GS33 (cm) ([7]; GS33, CCC 1.0 l/ha): 2.51 cm | Mean Root Length GS33 (cm) ([7]; GS33, CCC 1.0 l/ha): 2.40 cm | Mean Root Weight GS33 ([7]; GS33, CCC 1.0 l/ha): 4.10 g | No of “large” Stems GS33 ([7]; GS33, CCC 1.0 l/ha): 2.95 | Total Stem Number GS33 ([7]; GS33, CCC 1.0 l/ha): 4.40 | Mean % Lodged Maturity ([7]; at maturity, CCC 1.0 l/ha): 1.7%

CCOC(=O)C1CC(=O)C(=C(O)C2CC2)C(=O)C1 (centres unmarked) [MOD, Trinexapac-ethyl]
No of Large Pod Bearing Branches/Plant at Harvest [1]: 1.0 | Final Seed Yield at Harvest (g per pot) [1]: 36.2 g per pot | Plant Biomass Score (0-9) at Harvest [1]: 6.2 | Rooting (0-9) + 28 Days [1]: 4.4 | Final Seed Yield + % [1]: 0% | No of Large Pod Bearing Branches/Plant + % [1]: 0% | Plant Biomass Score + % [1]: 0% | Rooting + % [1]: 0% | No of Large Pod Bearing Branches/Plant at Harvest [3]: 1.2 | Final Seed Yield at Harvest (g per pot) [3]: 56.1 g per pot | Plant Biomass Score (0-9) at Harvest [3]: 5.6 | Rooting (0-9) + 28 Days [3]: 7.2 | Final Seed Yield + % [3]: 0% | No of Large Pod Bearing Branches/Plant + % [3]: 0% | Plant Biomass Score + % [3]: 0% | Rooting + % [3]: 0% | Total No of Shoots/Plant at GS33 [4]: 3.8 | Total No of “Large” Shoots/Plant at GS33 [4]: 2.6 | Rooting (0-9) + 28 Days [4]: 6.4 | Final Seed Yield + % [4]: 0% | Rooting + % [4]: 0% | Total No of Shoots/Plant + % [4]: 0% | Total No of “Large” Shoots/Plant + % [4]: 0% | Final Seed Yield at Harvest (g per pot) [4]: 35.4 g per pot

Source: US20120108431A1, “PLANT GROWTH REGULATOR ADDITIVE” (TAMINCO, NAAMLOZE VENNOOTSCHAP, priority 2009, published 2012)
